Source: PubChem BioAssay AID1963847 (Molecular Pharmacology Branch, DTP, NCI, 2024)
pIC50: −log10 of the molar value.

Test system: 415267-285-R-J2-PDC complex spheroid viability
Assay: Anticancer human tumor 415267-285-R-J2-PDC patient-derived breast carcinoma cell line growth inhibition [POLQ]
Conditions: for pIC50: curve of first compound; for viability, T/C: stronger effect = lower value
Method in brief: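 Growth inhibition in 3D: complex spheroids (tumor PDC, HUVEC, MSC) treated with POLQ inhibitor combinations; where Cmax unknown, highest tested concentration 10 microM, except SN-38 at 1 microM.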

[1] = second compound 0.0316 µM, first compound 0.0316 µM
[2] = second compound 0.0316 µM, first compound 0.1 µM
[3] = second compound 0.0316 µM, first compound 0.316 µM
[4] = second compound 0.0316 µM, first compound 1 µM
[5] = second compound 0.0316 µM, first compound 3.16 µM
[6] = second compound 0.0316 µM, first compound 10 µM
[7] = second compound 0.1 µM, first compound 0.0316 µM
[8] = second compound 0.1 µM, first compound 0.1 µM
[9] = second compound 0.1 µM, first compound 0.316 µM
[10] = second compound 0.1 µM, first compound 1 µM
[11] = second compound 0.1 µM, first compound 3.16 µM
[12] = second compound 0.1 µM, first compound 10 µM
[13] = second compound 0.316 µM, first compound 0.0316 µM
[14] = second compound 0.316 µM, first compound 0.1 µM
[15] = second compound 0.316 µM, first compound 0.316 µM
[16] = second compound 0.316 µM, first compound 1 µM
[17] = second compound 0.316 µM, first compound 3.16 µM
[18] = second compound 0.316 µM, first compound 10 µM
[19] = second compound 1 µM, first compound 0.0316 µM
[20] = second compound 1 µM, first compound 0.1 µM
[21] = second compound 1 µM, first compound 0.316 µM
[22] = second compound 1 µM, first compound 1 µM
[23] = second compound 1 µM, first compound 3.16 µM
[24] = second compound 1 µM, first compound 10 µM
[25] = second compound 3.16 µM, first compound 0.0316 µM
[26] = second compound 3.16 µM, first compound 0.1 µM
[27] = second compound 3.16 µM, first compound 0.316 µM
[28] = second compound 3.16 µM, first compound 1 µM
[29] = second compound 3.16 µM, first compound 3.16 µM
[30] = second compound 3.16 µM, first compound 10 µM
[31] = second compound 10 µM, first compound 0.0316 µM
[32] = second compound 10 µM, first compound 0.1 µM
[33] = second compound 10 µM, first compound 0.316 µM
[34] = second compound 10 µM, first compound 1 µM
[35] = second compound 10 µM, first compound 3.16 µM
[36] = second compound 10 µM, first compound 10 µM
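Note: spheroids exposed to compounds for one week before readout.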
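Throughout, for viability, T/C: luminescence used as stand-in measure of viable cells; 100% = DMSO vehicle control viability.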

COc1ccc([C@@H](O)c2cc(-c3ncnc4cc(N5CCOCC5)ccc34)c(F)cc2Cl)nn1 + Nc1ccc(C#CCN(C(=O)Cc2ncc(C(F)(F)F)cc2C(F)(F)F)c2ccc(F)cc2)nn1
pIC50 (second compound 0.0316 µM): < 5.00
pIC50 (second compound 0.1 µM): < 5.00
pIC50 (second compound 0.316 µM): < 5.00
pIC50 (second compound 1 µM): < 5.00
pIC50 (second compound 3.16 µM): < 5.00
pIC50 (second compound 10 µM): < 5.00
viability, T/C [1]: 94.4%
viability, T/C [2]: 99.9%
viability, T/C [3]: 100%
viability, T/C [4]: 106%
viability, T/C [5]: 93%
viability, T/C [6]: 58.2%
viability, T/C [7]: 108%
viability, T/C [8]: 109%
viability, T/C [9]: 84.7%
viability, T/C [10]: 92.4%
viability, T/C [11]: 95.2%
viability, T/C [12]: 53.2%
viability, T/C [13]: 107%
viability, T/C [14]: 103%
viability, T/C [15]: 107%
viability, T/C [16]: 110%
viability, T/C [17]: 84.4%
viability, T/C [18]: 58%
viability, T/C [19]: 98.7%
viability, T/C [20]: 88%
viability, T/C [21]: 104%
viability, T/C [22]: 102%
viability, T/C [23]: 91.2%
viability, T/C [24]: 51.6%
viability, T/C [25]: 102%
viability, T/C [26]: 104%
viability, T/C [27]: 108%
viability, T/C [28]: 106%
viability, T/C [29]: 93.3%
viability, T/C [30]: 69.1%
viability, T/C [31]: 105%
viability, T/C [32]: 107%
viability, T/C [33]: 102%
viability, T/C [34]: 102%
viability, T/C [35]: 89.3%
viability, T/C [36]: 64.5%

CC[C@@]1(O)C(=O)OCc2c1cc1n(c2=O)Cc2cc3c(CN(C)C)c(O)ccc3nc2-1 + COC1C(OC(N)=O)C(O)C(Oc2ccc3c(O)c(NC(=O)c4ccc(O)c(CC=C(C)C)c4)c(=O)oc3c2C)OC1(C)C
pIC50 (second compound 0.0316 µM): 7.73
pIC50 (second compound 0.1 µM): 7.65
pIC50 (second compound 0.316 µM): 7.66
pIC50 (second compound 1 µM): 7.71
pIC50 (second compound 3.16 µM): 7.71
pIC50 (second compound 10 µM): 7.71
viability, T/C (second compound 0.0316 µM, first compound 0.000316 µM): 101%
viability, T/C (second compound 0.0316 µM, first compound 0.001 µM): 99%
viability, T/C (second compound 0.0316 µM, first compound 0.00316 µM): 101%
viability, T/C (second compound 0.0316 µM, first compound 0.01 µM): 82%
viability, T/C [1]: 22.1%
viability, T/C [2]: 9.06%
viability, T/C (second compound 0.1 µM, first compound 0.000316 µM): 94%
viability, T/C (second compound 0.1 µM, first compound 0.001 µM): 98.6%
viability, T/C (second compound 0.1 µM, first compound 0.00316 µM): 97.4%
viability, T/C (second compound 0.1 µM, first compound 0.01 µM): 83.3%
viability, T/C [7]: 36.1%
viability, T/C [8]: 8.11%
viability, T/C (second compound 0.316 µM, first compound 0.000316 µM): 90%
viability, T/C (second compound 0.316 µM, first compound 0.001 µM): 101%
viability, T/C (second compound 0.316 µM, first compound 0.00316 µM): 103%
viability, T/C (second compound 0.316 µM, first compound 0.01 µM): 107%
viability, T/C [13]: 26.7%
viability, T/C [14]: 10.8%
viability, T/C (second compound 1 µM, first compound 0.000316 µM): 93.6%
viability, T/C (second compound 1 µM, first compound 0.001 µM): 99.7%
viability, T/C (second compound 1 µM, first compound 0.00316 µM): 88.6%
viability, T/C (second compound 1 µM, first compound 0.01 µM): 84.6%
viability, T/C [19]: 24.1%
viability, T/C [20]: 8.54%
viability, T/C (second compound 3.16 µM, first compound 0.000316 µM): 98.4%
viability, T/C (second compound 3.16 µM, first compound 0.001 µM): 97.4%
viability, T/C (second compound 3.16 µM, first compound 0.00316 µM): 105%
viability, T/C (second compound 3.16 µM, first compound 0.01 µM): 94%
viability, T/C [25]: 17.8%
viability, T/C [26]: 7.35%
viability, T/C (second compound 10 µM, first compound 0.000316 µM): 103%
viability, T/C (second compound 10 µM, first compound 0.001 µM): 107%
viability, T/C (second compound 10 µM, first compound 0.00316 µM): 107%
viability, T/C (second compound 10 µM, first compound 0.01 µM): 85.8%
viability, T/C [31]: 24.6%
viability, T/C [32]: 7.99%

Nc1ccn(C2OC(CO)C(O)C2(F)F)c(=O)n1 (stereo unspecified) + Cc1cccc(N(C)C(=O)C2C(O)CCN2c2nc(C)cc(C(F)(F)F)c2C#N)c1
pIC50 (second compound 0.0316 µM): > 7.50
pIC50 (second compound 0.1 µM): > 7.50
pIC50 (second compound 0.316 µM): > 7.50
pIC50 (second compound 1 µM): > 7.50
pIC50 (second compound 3.16 µM): > 7.50
pIC50 (second compound 10 µM): > 7.50
viability, T/C [1]: 8.22%
viability, T/C [2]: 6.11%
viability, T/C [3]: 5.62%
viability, T/C [4]: 4.61%
viability, T/C [5]: 5.96%
viability, T/C [6]: 5.35%
viability, T/C [7]: 8.77%
viability, T/C [8]: 5.43%
viability, T/C [9]: 6.85%
viability, T/C [10]: 5.22%
viability, T/C [11]: 6.13%
viability, T/C [12]: 4.79%
viability, T/C [13]: 8.5%
viability, T/C [14]: 6.58%
viability, T/C [15]: 5.69%
viability, T/C [16]: 5.62%
viability, T/C [17]: 6.58%
viability, T/C [18]: 6.07%
viability, T/C [19]: 12.5%
viability, T/C [20]: 6.12%
viability, T/C [21]: 5.2%
viability, T/C [22]: 5.51%
viability, T/C [23]: 5.07%
viability, T/C [24]: 5.32%
viability, T/C [25]: 7.95%
viability, T/C [26]: 5.96%
viability, T/C [27]: 5.8%
viability, T/C [28]: 4.93%
viability, T/C [29]: 5.53%
viability, T/C [30]: 5.95%
viability, T/C [31]: 9.14%
viability, T/C [32]: 6.37%
viability, T/C [33]: 6.58%
viability, T/C [34]: 5.23%
viability, T/C [35]: 6.03%
viability, T/C [36]: 5.65%
